Assay results from patent publication US8680290B2, “Isoxazoline derivatives and their use as herbicides” (Syngenta Limited, priority 2004, dated 2014).

What was measured:
[1] = tested on: Monocotyledonous and dicotyledonous test plants; experiment: Example B1 herbicidal action, application pre-emergence (Table B1b); format: in vivo; conditions: 250 g/ha, evaluated after 4 weeks
Method: (§1) Monocotyledonous and dicotyledonous test plants were sown in seed trays in standard soil. Immediately after sowing (pre-emergence) or after 8 to 9 days cultivation (post-emergence), the test compounds were applied by spraying in the form of an aqueous solution derived from the formulation of the technical active ingredient in 0.6 ml acetone and 45 ml formulation solution containing 10.6% Emulsogen EL (CAS RN 61791-12-6), 42.2% N-methylpyrrolidone, 42.2% dipropylene glycol monomethyl ether (CAS RN 34590-94-8) and 0.2% X-77 (CAS RN 11097-66-8). The test plants were then grown in a greenhouse under optimum conditions. After a test duration of 3 weeks (post-emergence) or 4 weeks (pre-emergence), the test was evaluated (10=total damage to plant, 0=no damage to plant).

[2] = tested on: Monocotyledonous and dicotyledonous test plants; experiment: Example B1 herbicidal action, application post-emergence (Table B1a); format: in vivo; conditions: 250 g/ha, evaluated after 3 weeks, scale 0-10
Method: as §1

| SMILES | herbicidal action (damage rating 0-10), Amaranthus [1] | herbicidal action (damage rating 0-10), Digitaria [1] | herbicidal action (damage rating 0-10), Panicum [1] | herbicidal action (damage rating 0-10), Setaria [1] | herbicidal action (damage rating 0-10), Sida [1] | herbicidal damage rating, Abutilon [2] | herbicidal damage rating, Amaranthus [2] | herbicidal damage rating, Digitaria [2] | herbicidal damage rating, Panicum [2] | herbicidal damage rating, Setaria [2] | herbicidal damage rating, Sida [2] |
| --- | --- | --- | --- | --- | --- | --- | --- | --- | --- | --- | --- |
| CC1(C)CC(S(=O)(=O)C(F)(Cl)c2ccccc2C#N)=NO1 (racemic) [1.71] | 10 | 9 | 10 | 9 | 5 | 0 | 5 | 8 | 0 | 3 | 2 |
| Cc1ccccc1C(F)(Cl)S(=O)(=O)C1=NOC(C)(C)C1 (racemic) [1.74] | 5 | 9 | 10 | 9 | 7 | 0 | 0 | 8 | 5 | 3 | 3 |
| CC1(C)CC(S(=O)(=O)C(F)(Cl)c2ccccc2)=NO1 (racemic) [1.75] | 10 | 10 | 10 | 10 | 7 | 5 | 3 | 8 | 5 | 5 | 4 |
| CC1(C)CC(S(=O)(=O)C(Br)c2c(F)cccc2C(F)(F)F)=NO1 (racemic) [1.80] | 10 | 10 | 10 | 10 | 9 | 4 | 0 | 8 | 5 | 7 | 5 |
| CC1(C)CC(S(=O)(=O)C(Br)c2ccccc2C#N)=NO1 (racemic) [1.83] | 9 | 9 | 10 | 9 | 0 | 5 | 5 | 9 | 7 | 7 | 3 |
| Cc1ccccc1C(F)S(=O)(=O)C1=NOC(C)(C)C1 (racemic) [1.93] | 8 | 10 | 10 | 10 | 6 | 3 | 7 | 7 | 8 | 3 | 2 |
| CC1(C)CC(S(=O)(=O)C(F)(Cl)c2ccccc2C(F)(F)F)=NO1 (racemic) [1.95] | 7 | 10 | 10 | 10 | 7 | 0 | 0 | 8 | 7 | 3 | 2 |
| COc1cc(OC)cc(C(F)(Cl)S(=O)(=O)C2=NOC(C)(C)C2)c1 (racemic) [1.96] | 9 | 10 | 10 | 10 | 4 | 5 | 0 | 8 | 5 | 3 | 2 |
| CC1(C)CC(S(=O)(=O)C(F)(I)c2c(F)cccc2F)=NO1 (racemic) [Compound No. 1.61] | 10 | 10 | 10 | 10 | 7 | 3 | 0 | 7 | 4 | 6 | 3 |
| C=C(OC(C)=O)C(F)(c1c(F)cccc1F)S(=O)(=O)C1=NOC(C)(C)C1 (racemic) [Compound No. 1.62] | 10 | 9 | 10 | 10 | 8 | 4 | 2 | 7 | 8 | 6 | 5 |
| CC1(C)CC(S(=O)(=O)C(C)(F)c2c(F)cccc2F)=NO1 (centres unmarked) [1.55] | 9 | 10 | 10 | 10 | 5 | 5 | 3 | 6 | 5 | 7 | 3 |
| CC1(C)CC(S(=O)(=O)C(F)(F)c2ccccc2C(F)(F)F)=NO1 [1.65] | 10 | 10 | 10 | 10 | 8 | 2 | 0 | 8 | 7 | 5 | 2 |
| CC1(C)CC(S(=O)(=O)C(F)(F)c2ccccc2OC(F)F)=NO1 [1.66] | 10 | 10 | 10 | 10 | 9 | 8 | 5 | 8 | 5 | 7 | 5 |
| CC1(C)CC(S(=O)(=O)C(F)(F)c2ccccc2OC(F)(F)F)=NO1 [1.67] | 10 | 10 | 10 | 10 | 9 | 4 | 3 |  | 3 | 5 | 4 |
| CC1(C)CC(S(=O)(=O)C(F)(F)c2ccccc2SC(F)(F)F)=NO1 [1.70] | 10 | 10 | 10 | 10 | 8 | 5 | 2 | 8 | 5 | 7 | 5 |
| CC1(C)CC(S(=O)(=O)C(F)(F)c2ccccc2C#N)=NO1 [1.72] | 10 | 10 | 10 | 10 | 6 | 3 | 8 | 7 | 7 | 8 | 0 |
| COc1cc(OC)cc(C(F)(F)S(=O)(=O)C2=NOC(C)(C)C2)c1 [1.76] | 9 | 9 | 10 | 8 | 3 | 5 | 3 |  | 5 | 5 | 5 |
